Reference: US6737383B1, “Herbicidal oxadiazolidines” (priority 1999, dated 2004)

Assays:
bedstraw = experiment: Test B pre/postemergence bedstraw; assay type: in vivo, Galium aparine; conditions: Preemergence
Procedure, shortened: (§1)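 Response is a visual 0-to-10 score relative to untreated plants, where 0 means no effect and 10 means complete control, taken twelve to sixteen days after application. Treatments went onto soil at planting and onto foliage of 1- to 4-leaf plants, using a surfactant-containing non-phytotoxic solvent.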

blackgrass = experiment: Test B pre/postemergence blackgrass; assay type: in vivo, Alopecurus myosuroides
Procedure, shortened: as §1

surinam grass = experiment: Test B pre/postemergence surinam grass; assay type: in vivo, Brachiaria decumbens
Procedure, shortened: as §1

cocklebur = experiment: Test B pre/postemergence cocklebur; assay type: in vivo, Xanthium strumarium
Procedure, shortened: as §1

corn = experiment: Test B pre/postemergence corn; assay type: in vivo, Zea mays
Procedure, shortened: as §1

crabgrass = experiment: Test B pre/postemergence crabgrass; assay type: in vivo, Digitaria sanguinalis
Procedure, shortened: as §1

giant foxtail = experiment: Test B pre/postemergence giant foxtail; assay type: in vivo, Setaria faberii
Procedure, shortened: as §1

morningglory = experiment: Test B pre/postemergence morningglory; assay type: in vivo, Ipomoea hederacea
Procedure, shortened: as §1

pigweed = experiment: Test B pre/postemergence pigweed; assay type: in vivo, Amaranthus retroflexus
Procedure, shortened: as §1

rape = experiment: Test B pre/postemergence rape; assay type: in vivo, Brassica napus
Procedure, shortened: as §1

soybean = experiment: Test B pre/postemergence soybean; assay type: in vivo, Glycine max
Procedure, shortened: as §1

sugar beet = experiment: Test B pre/postemergence sugar beet; assay type: in vivo, Beta vulgaris
Procedure, shortened: as §1

velvetleaf = experiment: Test B pre/postemergence velvetleaf; assay type: in vivo, Abutilon theophrasti
Procedure, shortened: as §1

wheat = experiment: Test B pre/postemergence wheat; assay type: in vivo, Triticum aestivum
Procedure, shortened: as §1

wild oat = experiment: Test B pre/postemergence wild oat; assay type: in vivo, Avena fatua
Procedure, shortened: as §1

purple nutsedge = experiment: Test B pre/postemergence purple nutsedge; assay type: in vivo, Cyperus rotundus
Procedure, shortened: as §1

[1] = Postemergence, Rate 62 g/ha, scale of 0 to 10, 0 is no effect, 10 is complete control
[2] = Postemergence, Rate 125 g/ha, scale 0 to 10, 0 is no effect, 10 is complete control
[3] = Postemergence, Rate 500 g/ha, scale of 0 to 10 where 0 is no effect and 10 is complete control
[4] = Preemergence, Rate 62 g/ha, scale 0 to 10 (0 no effect, 10 complete control)
[5] = Preemergence, Rate 125 g/ha, scale 0 to 10, 0 is no effect, 10 is complete control
[6] = Preemergence, Rate 500 g/ha, scale of 0 to 10 where 0 is no effect and 10 is complete control
[7] = Rate 250 g/ha, Postemergence, scale of 0 to 10 where 0 is no effect and 10 is complete control

Structure (SMILES): CC(C)N(C(=O)n1oc(=O)n(CCC(F)=C(F)F)c1=O)c1ccccc1 [Compound 566]
- Bedstraw plant response rating (bedstraw; Rate 62 g/ha, scale 0 to 10 (0 no effect, 10 complete control)): 0
- Bedstraw plant response rating (bedstraw; Rate 125 g/ha, scale 0 to 10, 0 is no effect, 10 is complete control): 0
- Bedstraw plant response rating (0 to 10 scale) (bedstraw; Rate 250 g/ha): 0
- Bedstraw plant response rating (bedstraw; Rate 500 g/ha, scale of 0 to 10 where 0 is no effect and 10 is complete control): 0
- Blackgrass plant response rating (blackgrass; [1]): 0
- Blackgrass plant response rating (blackgrass; [2]): 2
- Plant response rating, Blackgrass (blackgrass; [3]): 6
- Blackgrass plant response rating (blackgrass; [4]): 3
- Blackgrass plant response rating (blackgrass; [5]): 9
- Blackgrass plant response rating (0 to 10 scale) (blackgrass; Preemergence, Rate 250 g/ha): 10
- Blackgrass plant response rating (blackgrass; [6]): 10
- Plant response rating, Blackgrass (blackgrass; [7]): 3
- B. signalgrass plant response rating (surinam grass; [1]): 2
- B. signalgrass plant response rating (surinam grass; [2]): 8
- Plant response rating, B. signalgrass (surinam grass; [3]): 9
- B. signalgrass plant response rating (surinam grass; [4]): 9
- B. signalgrass plant response rating (surinam grass; [5]): 9
- B. signalgrass plant response rating (0 to 10 scale, 0 is no effect, 10 is complete control) (surinam grass; Preemergence, Rate 250 g/ha): 10
- B. signalgrass plant response rating (surinam grass; [6]): 9
- Plant response rating, B. signalgrass (surinam grass; [7]): 8
- Cocklebur plant response rating (cocklebur; [1]): 2
- Cocklebur plant response rating (cocklebur; [2]): 2
- Plant response rating, Cocklebur (cocklebur; [3]): 3
- Cocklebur plant response rating (cocklebur; [4]): 0
- Cocklebur plant response rating (cocklebur; [5]): 0
- Cocklebur plant response rating (0 to 10 scale) (cocklebur; Preemergence, Rate 250 g/ha): 0
- Cocklebur plant response rating (cocklebur; [6]): 0
- Plant response rating, Cocklebur (cocklebur; [7]): 2
- Corn plant response rating (corn; [1]): 0
- Corn plant response rating (corn; [2]): 0
- Plant response rating, Corn (corn; [3]): 2
- Corn plant response rating (corn; [4]): 0
- Corn plant response rating (corn; [5]): 2
- Corn plant response rating (0 to 10 scale) (corn; Preemergence, Rate 250 g/ha): 2
- Corn plant response rating (corn; [6]): 9
- Plant response rating, Corn (corn; [7]): 2
- Crabgrass plant response rating (crabgrass; [1]): 2
- Crabgrass plant response rating (crabgrass; [2]): 8
- Plant response rating, Crabgrass (crabgrass; [3]): 9
- Crabgrass plant response rating (crabgrass; [4]): 9
- Crabgrass plant response rating (crabgrass; [5]): 9
- Crabgrass plant response rating (0 to 10 scale) (crabgrass; Preemergence, Rate 250 g/ha): 9
- Crabgrass plant response rating (crabgrass; [6]): 10
- Plant response rating, Crabgrass (crabgrass; [7]): 10
- Giant foxtail plant response rating (giant foxtail; [1]): 0
- Giant foxtail plant response rating (giant foxtail; [2]): 8
- Plant response rating, Giant foxtail (giant foxtail; [3]): 9
- Giant foxtail plant response rating (giant foxtail; [4]): 9
- Giant foxtail plant response rating (giant foxtail; [5]): 10
- Giant foxtail plant response rating (0 to 10 scale) (giant foxtail; Preemergence, Rate 250 g/ha): 10
- Giant foxtail plant response rating (giant foxtail; [6]): 10
- Plant response rating, Giant foxtail (giant foxtail; [7]): 8
- Morningglory plant response rating (morningglory; [1]): 5
- Morningglory plant response rating (morningglory; [2]): 5
- Plant response rating, Morningglory (morningglory; [3]): 10
- Morningglory plant response rating (morningglory; [4]): 0
- Morningglory plant response rating (morningglory; [5]): 0
- Morningglory plant response rating (0 to 10 scale) (morningglory; Preemergence, Rate 250 g/ha): 0
- Morningglory plant response rating (morningglory; [6]): 0
- Plant response rating, Morningglory (morningglory; [7]): 6
- Redroot pigweed plant response rating (pigweed; [1]): 3
- Plant response rating, Redroot pigweed (pigweed; [3]): 5
- Redroot pigweed plant response rating (pigweed; [4]): 0
- Redroot pigweed plant response rating (pigweed; [5]): 9
- Redroot pigweed plant response rating (0 to 10 scale) (pigweed; Preemergence, Rate 250 g/ha): 9
- Redroot pigweed plant response rating (pigweed; [6]): 10
- Rape plant response rating (rape; [1]): 0
- Rape plant response rating (rape; [2]): 0
- Plant response rating, Rape (rape; [3]): 9
- Rape plant response rating (rape; [4]): 0
- Rape plant response rating (rape; [5]): 0
- Rape plant response rating (0 to 10 scale) (rape; Preemergence, Rate 250 g/ha): 7
- Rape plant response rating (rape; [6]): 10
- Plant response rating, Rape (rape; [7]): 9
- Soybean plant response rating (soybean; [1]): 4
- Plant response rating, Soybean (soybean; [3]): 6
- Soybean plant response rating (soybean; [4]): 0
- Soybean plant response rating (soybean; [5]): 0
- Soybean plant response rating (0 to 10 scale) (soybean; Preemergence, Rate 250 g/ha): 0
- Soybean plant response rating (soybean; [6]): 0
- Plant response rating, Soybean (soybean; [7]): 6
- Sugarbeets plant response rating (sugar beet; [1]): 0
- Plant response rating, Sugarbeets (sugar beet; [3]): 5
- Sugarbeets plant response rating (sugar beet; [4]): 0
- Sugarbeets plant response rating (sugar beet; [5]): 4
- Sugarbeets plant response rating (0 to 10 scale) (sugar beet; Preemergence, Rate 250 g/ha): 6
- Sugarbeets plant response rating (sugar beet; [6]): 6
- Velvetleaf plant response rating (velvetleaf; [1]): 3
- Plant response rating, Velvetleaf (velvetleaf; [3]): 5
- Velvetleaf plant response rating (velvetleaf; [4]): 0
- Velvetleaf plant response rating (velvetleaf; [5]): 0
- Velvetleaf plant response rating (0 to 10 scale) (velvetleaf; Preemergence, Rate 250 g/ha): 0
- Velvetleaf plant response rating (velvetleaf; [6]): 2
- Plant response rating, Velvetleaf (velvetleaf; [7]): 5
- Wheat plant response rating (wheat; [1]): 0
- Plant response rating, Wheat (wheat; [3]): 4
- Wheat plant response rating (wheat; [4]): 0
- Wheat plant response rating (wheat; [5]): 6
- Wheat plant response rating (0 to 10 scale) (wheat; Preemergence, Rate 250 g/ha): 6
- Wheat plant response rating (wheat; [6]): 7
- Plant response rating, Wheat (wheat; [7]): 0
- Wild oats plant response rating (wild oat; [1]): 0
- Plant response rating, Wild oats (wild oat; [3]): 4
- Wild oats plant response rating (wild oat; [4]): 3
- Wild oats plant response rating (wild oat; [5]): 9
- Wild oats plant response rating (0 to 10 scale) (wild oat; Preemergence, Rate 250 g/ha): 8
- Wild oats plant response rating (wild oat; [6]): 10
- Plant response rating, Wild oats (wild oat; [7]): 0
- Nutsedge plant response rating (purple nutsedge; [1]): 0
- Nutsedge plant response rating (purple nutsedge; [2]): 0
- Plant response rating, Nutsedge (purple nutsedge; [3]): 0
- Nutsedge plant response rating (purple nutsedge; [4]): 0
- Nutsedge plant response rating (purple nutsedge; [5]): 0
- Nutsedge plant response rating (0 to 10 scale) (purple nutsedge; Preemergence, Rate 250 g/ha): 0
- Nutsedge plant response rating (purple nutsedge; [6]): 0
